From patent publication US5476850A, “Amino-substituted benzenesulfonylureas and -thioureas and their use as pharmaceuticals” (Hoechst Aktiengesellschaft, priority 1993, dated 1995)

How the values were obtained:
RINm5F cells = assay: Membrane potential on isolated β-cells (whole cell patch clamp, RINm5F cells); format: cell-based; settings: compound 10^-6 mol per liter; diazoxide 100 μmol in bath; 34°±1° C.; blank cell potential -76
Text: (2) Membrane potential on isolated β-cells:
The mechanism of action of the hypoglycemic sulfonylureas is elucidated in rough terms. The target organ is the β-cells of the pancreas where increased secretion of the hypoglycemic hormone insulin occurs. The release of insulin is controlled by means of the cell membrane potential. Glibenclamide causes a depolarization of the cell membrane, which promotes insulin release via an increased influx of calcium ions. The extent of this depolarization of the cell membrane ΔU was determined on RINm5F cells, a pancreas tumor cell line, for a few of the compounds according to the invention. The potency of a compound in this model predicts the extent of the hypoglycemic potential of this compound.
RINm5F cells were cultured at 37° C. in RPMI 1640 culture medium (Flow), to which 11 mmol of glucose, 10% (vol/vol) fetal calf-serum, 2 mmol of glutamine and 50 μg/ml of gentamycin were added. […]
Isolated RINm5F cells were transferred to a Plexiglas chamber on an inverted microscope which is equipped with a differential interference contrast optical system. […] In this whole cell configuration, the cell potential was recorded with the aid of a patch clamp amplifier (L/M EPC 7) and measured by applying a voltage ramp to the whole cell current. […]

[1] = test system: papillary muscle of the guinea-pig; assay: Action potential duration on the papillary muscle of the guinea-pig (microelectrode technique; APD shortened by 2-deoxyglucose or rilmakalim); format: cell-based; settings: test substance 2.2·10^-5 mol per liter, 30 minutes after addition, control <40 ms; for APD95 -rilmakalim: action potential reduced by 1 μM rilmakalim (Hoe 234); for APD95 -DEO: action potential reduced by 2-deoxyglucose (DEO)
Text: (1) Action potential duration on the papillary muscle of the guinea-pig:
ATP deficiency states, as are observed during ischemia in the cardiac muscle cell, lead to a reduction of the action potential duration. They count as one of the causes of so-called reentry arrhythmias, which can cause sudden heart death. The opening of ATP-sensitive K channels by the reduction of ATP counts as causal here.
To measure the action potential, a standard microelectrode technique is employed. For this, guinea-pigs of both sexes are killed by a blow to the head, the hearts are removed, and the papillary muscles are separated out and suspended in an organ bath. The organ bath is irrigated with Ringer solution (0.9% NaCl, 0.048% KCl, 0,024% CaCl2, 0.02% NaHCO3 and 0.1% glucose) and aerated with a mixture of 95% oxygen and 5% carbon dioxide at a temperature of 36° C. The muscle is stimulated by means of an electrode using square-wave impulses of 1 V and 1 ms duration and a frequency of 2 Hz. The action potential is derived and recorded by means of a glass microelectrode inserted intracellularly, which is filled with […] KCl solution. The substances to be tested were added to the Ringer solution in a concentration of 2.2·10^-5 mol per liter. The action potential is shown amplified on an oscilloscope using an amplifier from Hugo Sachs. The duration of the action potential is determined at a degree of repolarization of 95% (APD95). Action potential reductions are produced either by addition of a 1 μM solution of the potassium channel opener rilmakalim (Hoe 234) [W. Linz, E. Klaus, U. Albus, R. H. A. Becker, D. Mania, H. C. Englert, B. A. Schokens, Arzneimittelforschung/Drug Research, Volume 42 (II), 1992, pp. 1180 to 1185] or by addition of 2-deoxyglucose (DEO). In experimental physiology, ATP deficiency states are produced by 2-deoxyglucose by blockade of glucose metabolism. The action potential-reducing effect of these substances was prevented or reduced by the simultaneous addition of the test substances. Test substances were added to the bath solution as stock solutions in propanediol. The values indicated relate to measurements 30 minutes after addition. The APD95 in the presence of […] or rilmakalim and in the absence of the test substance counts as the control.

Compound | ΔU (depolarization of the cell membrane) (RINm5F cells) [mv] | APD95 -rilmakalim [1] [ms] | APD95 -DEO [1] [ms]
CNC(=S)NS(=O)(=O)c1cc(CCNC(=O)c2cc(Cl)ccc2OC)ccc1N1CCOCC1 [Example 1, 2-Methoxy-5-chloro-N-{5-[1-sulfonylamino-N-(methylaminothiocarbonyl)-2-(4-morpholino)phenyl]ethyl}benzamide] | 14 | 121 ± 14 | 110
CNC(=S)NS(=O)(=O)c1cc(CCNC(=O)c2cc(Cl)ccc2OC)ccc1N1CCCCC1 [Example 2, 2-Methoxy-5-chloro-N-{5-[1-sulfonylamino-N-(methylaminothiocarbonyl)-2-(1-piperidyl)phenyl]ethyl}benzamide] | 19 | 153 ± 15 | 105 ± 11
